{"source": "ChEMBL document CHEMBL2046320", "about": "“Bisubstrate analog inhibitors of 6-hydroxymethyl-7,8-dihydropterin pyrophosphokinase: new lead exhibits a distinct binding mode” (Bioorg Med Chem, 2012)", "key": {"[1]": {"molecular_target": "T1, 2-amino-4-hydroxy-6-hydroxymethyldihydropteridine pyrophosphokinase (Escherichia coli (strain K12), UniProt P26281)", "T1 sequence (P26281 whole entry)": "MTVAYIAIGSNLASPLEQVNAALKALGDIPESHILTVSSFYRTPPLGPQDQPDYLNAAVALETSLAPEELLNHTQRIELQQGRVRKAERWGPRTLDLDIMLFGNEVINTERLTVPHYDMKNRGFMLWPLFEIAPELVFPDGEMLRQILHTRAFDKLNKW", "assay": "Binding affinity to Escherichia coli HPPK at pH 8.3 by fluorometric titration"}, "[2]": {"molecular_target": "T1, 2-amino-4-hydroxy-6-hydroxymethyldihydropteridine pyrophosphokinase", "assay": "Inhibition of Escherichia coli HPPK using [alpha-33P]ATP after 30 mins"}}, "data": [{"smiles": "CC1(C)Nc2nc(N)[nH]c(=O)c2N=C1C(=O)NCC(=O)NCCS(=O)(=O)C[C@H]1O[C@@H](n2cnc3c(N)ncnc32)[C@H](O)[C@@H]1O", "values": [{"measurement": "Kd", "setting": "[1]", "value": 4.16, "unit": "µM"}, {"measurement": "IC50", "setting": "[2]", "value": 9.53, "unit": "µM"}]}]}
